Results taken from patent US20250025387A1, “COMPOSITION FOR THE TREATMENT OF THE SKIN OF DIABETES PATIENTS” (MIBELLE AG, priority 2021, published 2025).
“Also recorded” adds a separate entry of the source.

How the values were obtained:
loricrin = assay: Loricrin expression stain of 3D epidermis (immunohistochemistry); assay type: cell-based, human; conditions: 1.1 mM apical, 0.3 mM CaCl2·2H2O basal, 9 days of differentiation
Procedure: (§1) The effect of the Ca^2+ phospholipid complexes on the differentiation of 3D-reconstructed epidermis was investigated. To this end, keratinocyte progenitor cells were cultivated in low-calcium growth medium (TAK-GM, 0.03 mM calcium chloride dihydrate (CaCl2·2H2O)) and were then used to reconstruct a 3D epidermis. For this purpose, the medium was replaced by a 3D differentiation medium (TAK-3D) containing 1.1 mM CaCl2·2H2O and the cells were grown in the medium for a further day. The cultures were then contacted with the air in order to induce differentiation and formation of the skin barrier, and grown for a further 9 days with changing of the medium every second day in the following way: • Condition 1: 1.1 mM CaCl2·2H2O from the basal side (TAK-3D). This is the standard condition for efficient epidermis formation. • Condition 2: 0.3 mM CaCl2·2H2O from the basal side (low calcium concentration). The calcium concentration was reduced here in order to cause impaired formation of the epidermis and thus produce an impaired skin barrier. This is the minimum necessary calcium concentration that must be present on the basal side in order to ensure formation of the epidermis. • Condition 3: 0.3 mM CaCl2·2H2O from the basal side+1.1 mM CaCl2·2H2O from the apical side. Here, calcium was additionally added to the 3D epidermis apically in the form of calcium chloride dihydrate. […]

involucrin = assay: Involucrin expression in skin explants after topical treatment in Franz diffusion cells; assay type: cell-based; conditions: gel containing 0.013% CaCl2·2H2O, topical 24 hours, 20 mg
Procedure: The effect of a topical treatment with Ca^2+ phospholipid complex on the expression of the epidermis differentiation marker involucrin was investigated in skin explants. […] Thereafter, the skin explants were washed with 3 ml of water and frozen at −80° C. The tissues were fixed in formaldehyde and embedded in paraffin. Tissue sections of 5 μm were prepared and mounted on glass slides before deparaffination. The slides were stained with hematoxylin-eosin stain to analyze tissue structure. The protein expression of involucrin was determined by immunohistochemical staining and quantified by image analysis.

[1] = system: 3D-reconstructed epidermis; assay: Rebuilding of the epidermis structure in an in vitro skin model, control CaCl2 (hematoxylin-eosin stain); assay type: cell-based, human; conditions: 1.1 mM apical, 0.3 mM CaCl2·2H2O basal, 9 days of differentiation; dihydrate
Procedure: as §1

O.O.[Ca+2].[Cl-].[Cl-] [CaCl2·2H2O, calcium chloride dihydrate]
expression of the epidermal differentiation marker loricrin (loricrin): reduced loricrin production | reduction of involucrin expression compared to the placebo-treated skin explant (involucrin): 91.1% | formation of 3D epidermis (hematoxylin-eosin stain) [1]: impairment of epidermis formation; also recorded: additionally worsened the formation of a 3D epidermis
